Reference: patent US8637455B2, “Compositions and methods for delivery of glycopeptide antibiotics to medical device surfaces” (Affinergy, LLC, priority 2007, dated 2014)
*1 amine or outer side, *2 acyl side, *3 side chain or, on linkers, in order; H or OH if unused. Bridges are numbered along the chain shown (N, C = ends). Where no end group is shown, it is not given here. [ ]: non-standard residue; d: D form. The star is where a group is joined. (miniPEG)2 = linker of two mini-PEG units, (HN—CH2—CH2—O—CH2—CH2—O—CH2—C═O)2, O=C(COCCOCCN[*:1])NCCOCCOCC(=O)[*:2]; Myristoyl = CCCCCCCCCCCCCC(=O)*; Aun = NCCCCCCCCCCC(=O)O; AEEA = NCCOCCOCC(=O)O; Ahx = NCCCCCC(=O)O

Experiments:
[1] = Binding of alkaline-phosphatase linked peptides to immobilized biotinylated vancomycin; settings: absorbance at 405 nm
Description: From the peptide amino acid sequence […] (SEQ ID NO: 1) additional peptides were designed and expressed in the bacterial expression system described herein to further evaluate structure-function relationships. A truncated peptide comprising the amino acid sequence of SEQ ID NO:9 (STCLIDMYGVCH) was expressed and compared to a peptide comprising SEQ ID NO:1 for binding affinity for glycopeptide antibiotic. Also produced were a dimer of this truncated peptide (SEQ ID NO:10; […]), a D to A substitution (SEQ ID NO:11; STCLIAMYGVCH), a D to E substitution (SEQ ID NO:12; STCLIEMYGVCH), and a G to S substitution (SEQ ID NO:13; STCLIDMYSVCH). Relative binding strengths of these peptides and of other representative peptides to glycopeptide antibiotic were determined by EC50 values for binding to vancomycin or other glycopeptide antibiotic.
A typical binding assay for glycopeptide antibiotic was performed according to the following procedure. The concentrations of the alkaline-phosphatase linked variant peptides were normalized to equal levels based on the alkaline-phosphatase activity as determined in a kinetic assay with the alkaline-phosphatase specific chromogenic substrate p-nitrophenyl phosphate (p-NPP). A streptavidin coated microtiter plate was coated with biotinylated vancomycin. Serial dilutions of normalized alkaline-phosphatase linked peptides were allowed to bind to the immobilized vancomycin and detected by addition of the alkaline-phosphatase specific chromogenic substrate p-NPP. Relative affinity for peptide binding to the immobilized vancomycin was determined by measuring the absorbance at 405 nm of the colored product of the alkaline phosphatase reaction. […] EC50 values for the synthetic peptides binding to vancomycin were determined as described in Example 1 and are shown in Table 3. Preferred are peptides that bind to glycopeptide antibiotic with binding affinity of EC50 of less than or equal to about 1 μM, and more preferably, in the nanomolar range (e.g., <0.1 μM).

[2] = test system: Staphylococcus aureus strain MZ100; assay: In vitro infection assay on titanium beads, colony counts; type: cell-based; settings: peptide 5 μM + vancomycin 100 μM
Procedure: To illustrate the antibacterial activity of the peptide compositions, an in vitro infection assay was performed. Briefly, a surface material was contacted with one of the peptide compositions such that the peptide binds to the surface material. The peptide composition can have glycopeptide antibiotic already bound thereto at the time of contacting the peptide with the surface material, or the glycopeptide antibiotic can be contacted with the peptide in a step subsequent to binding the peptide composition to the surface material. The surface material was washed to remove unbound glycopeptide antibiotic, and then contacted with bacterial cells (added from a culture in log phase growth) and incubated to promote bacterial growth. The surface material was washed, and any bacterial cells colonizing the surface material removed and plated to assess bacterial growth.
In one example, Staphylococcus aureus strain MZ100 was used as the representative bacterial cells. First, as a representative surface material, titanium beads were sterilized in acetone in a sonication bath, and then air dried in a sterile hood. The beads were individually placed in sterilized microfuge tubes (one bead per tube). […] The next day, the plates were examined for bacterial growth, and the number of bacterial colonies was quantified per plate.

[3] = Vancomycin loading on titanium surface by peptide compositions (HPLC assay); type: binding; settings: peptide at 10 μM; vancomycin 200 μM; titanium beads; 30 minutes, 4 washes
Procedure: In one experiment, titanium beads were placed into wells of a 96 well plate. To each well was added a range of concentrations (1-50 μM) of peptide composition comprising at least one surface-binding peptide coupled to at least one glycopeptide antibiotic binding peptide and vancomycin at 200 μM. The appropriate negative controls were also included. The plate was incubated for 30 minutes, and then the wells and beads were washed 4 times with buffer. After washing, 10 mM HCl was added to each well to elute remaining vancomycin from the metal bead. Bound vancomycin was measured by HPLC assay at detection wavelength 214 nm. […] In addition, binding assays performed using stainless steel rather than titanium beads as a representative surface material yielded similar results.

S. aureus = assay: Bacterial growth with loaded titanium beads, optical density at 600 nm; type: cell-based; settings: peptide 10 μM + vancomycin 200 μM, 37° C. for 18 hours
Procedure: In another experiment, antimicrobial activity of the peptide compositions was measured as follows. Titanium beads were placed into wells of a 96 well plate. To each well was added a 10 μM of peptide composition comprising at least one surface-binding peptide coupled to at least one glycopeptide antibiotic binding peptide and vancomycin at 200 μM. The appropriate negative controls were also included. The plate was incubated for 1 hour at 20° C., and then the wells and beads were washed 4 times with buffer. After washing, the beads were transferred to the well of a plate containing S. aureus in log phase growth and incubated at 37° C. for 18 hours. Bacterial growth was assessed by reading optical density at 600 nm.

S. aureus MZ100 = assay: In vitro infection model on titanium pins, colony counts; type: cell-based; settings: composition 5 μM + vancomycin 100 μM, two hours with S. aureus MZ100
Procedure: Acetone-sterilized titanium pins (1 mm diameter, 12 mm long) were first washed in PBS. These pins were then incubated in a solution (PBS) containing the respective composition (5 μM)+vancomycin (100 μM) for 15 minutes at room temperature, with intermittent inversion for coating. Each pin was then washed extensively in PBS and placed in 30 μL of S. aureus MZ100 cultured at 10^6 colony forming units (cfu) per mL, according to methods above. The coated pins were then inoculated in 30 mm lengths of 1.5 mm diameter silicone tubing, with closed ends. After incubation for two hours with shaking, the pin was placed in a new tube containing 1 mL PBS. After inverting several times, PBS was aspirated, and replaced with a fresh 1 mL of PBS. The pins were then sonicated at 20 kHz for four cycles of 15 seconds each. Supernatants (100 μL) and dilutions were plated on trypticase soy agar (TSA) plates, incubated for 24 hours at 37° C., and colonies were counted. An assay control included the same steps of the infection model, except that the pin is uncoated pin (i.e., without composition according to the presently disclosed subject matter bound thereto) (“Control”). As representative examples, compositions comprising the amino acid sequences of SEQ ID NOs: 125 and 126 were tested for antimicrobial activity using the in vitro infection model (see, Table 7, “A” & “B”, respectively).

[4] = Binding assay of peptide for gentamycin; settings: gentamycin (an aminoglycoside antibiotic); similar assay format as for vancomycin
Procedure: Using a similar binding assay format as described herein for vancomycin, the ability of a peptide comprising the amino acid sequence of SEQ ID NO: 1 to bind gentamycin (an aminoglycoside antibiotic) was determined.

[5] = test system: binding between vancomycin and a peptide comprising the amino acid sequence of SEQ ID NO:1; assay: Inhibition by Lys-D-Ala-D-Ala of specific binding between vancomycin and peptide SEQ ID NO:1
Procedure: As an example, illustrated is the inhibition by Lys-D-Ala-D-Ala of specific binding between vancomycin and a peptide comprising the amino acid sequence of SEQ ID NO:1. To the wells of a 96 well plate coated with streptavidin was added 100 μl of a 0.2 μM solution of biotinylated peptide in buffer-T. After incubation, the wells were blocked by adding 200 μl of a 0.5 mM solution of biotin in buffer-T. The plates were then washed three times with buffer-T. Serial dilutions of Lys-D-Ala-D-Ala were prepared, and added individually to the wells such that Lys-D-Ala-D-Ala ranged in a final concentration of from about 1 μM to about 200 μM (in a volume of 35 μl). Also added to each well was 35 μl of biotinylated vancomycin (20 nM final concentration), and the plate was incubated at 30 minutes for room temperature. The wells were then washed three times with buffer-T, followed by the addition of 100 μl of streptavidin-alkaline phosphatase conjugate (1 mg/ml diluted 1:500 in buffer-T). Following a 30 minute incubation, the wells were washed five times with buffer-T. Added to each well was 100 μl of pNPP, followed by colorimetric detection after 12 minutes at an absorbance of 405 nm.

Substance: 11 (STCLIAMYGVCH) [compound 11]
- glycopeptide antibiotic binding [1]: no detectable glycopeptide antibiotic binding

Substance: 12 (STCLIEMYGVCH) [compound 12]
- glycopeptide antibiotic binding [1]: no detectable glycopeptide antibiotic binding

Substance: 13 (STCLIDMYSVCH) [compound 13]
- glycopeptide antibiotic binding [1]: no detectable glycopeptide antibiotic binding

Substance: 119 (NHTISKNHKKKNKNSNKTR) [compound 119]
- bacterial growth on the plates [2]: completely inhibited

Substance: 130 (SSCLIDIYGVCHNFDAY[AEEA][AEEA]HKKNNPKKKNKTRGSSK; disulfide 3-11 (inferred)) [compound 130]
- Picomoles vancomycin/cm^2 [3]: 83 Picomoles vancomycin/cm^2
- inhibition of bacterial growth (S. aureus): complete inhibition

Substance: 131 (SSCLIDIYGVCHNFDAY[AEEA][AEEA]SSHRTNHKKNNPKKKNKTRGSSGK; disulfide 3-11 (inferred)) [compound 131]
- Picomoles vancomycin/cm^2 [3]: 76 Picomoles vancomycin/cm^2
- inhibition of bacterial growth (S. aureus): complete inhibition

Substance: AUD-AUD-AUD-SSCLIDIYGVCHNFDAY-(miniPEG)2-HKKNNPKKKNKTRGSSK ([Aun][Aun][Aun]SSCLIDIYGVCHNFDAY[(miniPEG)2]HKKNNPKKKNKTRGSSK; disulfide 6-14 (inferred)) [SEQ ID NO: 126]
- # of bacterial colonies (CFU) (S. aureus MZ100): <10 CFU

Substance: CLIDMYGVCHNFDGAYDS [compound 1]
- binding affinity for gentamycin [4]: lacked significant binding affinity

Substance: Lys-D-Ala-D-Ala
- inhibition of binding between vancomycin and peptide ([5]; Lys-D-Ala-D-Ala between 100 μM to 200 μM): ~100%
- IC50 ([5]; biotinylated vancomycin 20 nM, immobilized peptide SEQ ID NO:1, read-out: concentration of Lys-D-Ala-D-Ala needed to inhibit about 50% of the binding between vancomycin and peptide): ~10 µM

Substance: Myr-Ahx-SSCLIDIYGVCHNFDAY-(miniPEG)2-HKKNNPKKKNKTRGSSK ({Myristoyl-Ahx}-SSCLIDIYGVCHNFDAY[(miniPEG)2]HKKNNPKKKNKTRGSSK; disulfide 3-11 (inferred)) [SEQ ID NO: 125]
- # of bacterial colonies (CFU) (S. aureus MZ100): 100 CFU

Substance: NHTISKNHKKKNKNSNKTR [SEQ ID NO: 119]
- # of bacterial colonies ([2]; 2 hour incubation with MZ100): 0

Substance: STCLIDMYGVCH [compound 9]
- glycopeptide antibiotic binding [1]: displayed glycopeptide antibiotic binding

Substance: STCLIDMYGVCHSSCLIDMYGVCH [compound 10]
- glycopeptide antibiotic binding [1]: displayed glycopeptide antibiotic binding
